Biological target: T1, F1FO-ATP synthase (FO domain, subunit c ring with subunit a) (Mycobacteroides abscessus, UniProt B1MLV6+B1MLV7)
T1 construct: gene atpE; native F1FO-ATP synthase in inverted-membrane vesicles of M. subsp. abscessus R variant; with subunit a (atpB); whole complex α3:β3:γ:ε:b-δ:b’:a:c9
Assay: ATP synthesis inhibition in inverted-membrane vesicles (luminescence)
Assay type: biochemical

Compound: COc1cc([C@](O)(CCN(C)C)[C@@H](c2cc3cc(Br)ccc3nc2OC)c2ccnc(OC)c2OC)cc(OC)n1 [TBAJ-5307]
- IC50: 1.4 nM

From publication PMC10840338, “High efficacy of the F-ATP synthase inhibitor TBAJ-5307 against nontuberculous mycobacteria in vitro and in vivo” (The Journal of Biological Chemistry, 2024)
